{"source": "patent US20180325914A1", "about": "“INCREASING STORAGE OF VITAMIN A, VITAMIN D AND/OR LIPIDS” (Salk Institute for Biological Studies, priority 2014, published 2018)", "tested_on": "primary HSCs"}
{"smiles": "Cc1sc2c(c1C)C(c1ccc(Cl)cc1)=N[C@@H](CC(=O)OC(C)(C)C)c1nnc(C)n1-2", "note": "[JQ1, (S)-tert-butyl 2-(4-(4-chlorophenyl)-2,3,9-trimethyl-6H-thieno[3,2-f][1,2,4]triazolo[4,3-a][1,4]diazepin-6-yl)acetate]", "values": [{"measurement": "Ccnb2 value_2", "setting": "mRNA-Seq, sample Day_6_JQ1", "value": 22.7753}, {"measurement": "Ccnf value_2", "setting": "mRNA-Seq, sample Day_6_JQ1", "value": 11.7934}, {"measurement": "Cdc45 value_2", "setting": "mRNA-Seq, sample Day_6_JQ1", "value": 7.419}, {"measurement": "Cdca3 value_2", "setting": "mRNA-Seq, sample Day_6_JQ1", "value": 31.4087}, {"measurement": "Cdk1 value_2", "setting": "mRNA-Seq, sample Day_6_JQ1", "value": 28.779}, {"measurement": "Cdkn2c value_2", "setting": "mRNA-Seq, sample Day_6_JQ1", "value": 16.1063}, {"measurement": "Cend1 value_2", "setting": "mRNA-Seq, sample Day_6_JQ1", "value": 7.615}, {"measurement": "Cenpe value_2", "setting": "mRNA-Seq, sample Day_6_JQ1", "value": 9.129}, {"measurement": "Cenph value_2", "setting": "mRNA-Seq, sample Day_6_JQ1", "value": 8.899}, {"measurement": "Chaf1a value_2", "setting": "mRNA-Seq, sample Day_6_JQ1", "value": 16.8473}, {"measurement": "Ckap2l value_2", "setting": "mRNA-Seq, sample Day_6_JQ1", "value": 18.5683}, {"measurement": "Ckb value_2", "setting": "mRNA-Seq, sample Day_6_JQ1", "value": 310.111}, {"measurement": "Cks1b value_2", "setting": "mRNA-Seq, sample Day_6_JQ1", "value": 113.98}, {"measurement": "Colec11 value_2", "setting": "mRNA-Seq, sample Day_6_JQ1", "value": 68.8593}, {"measurement": "Cpt1c value_2", "setting": "mRNA-Seq, sample Day_6_JQ1", "value": 30.5415}, {"measurement": "Ctnnbip1 value_2", "setting": "mRNA-Seq, sample Day_6_JQ1", "value": 14.2922}, {"measurement": "Cyb5r3 value_2", "setting": "mRNA-Seq, sample Day_6_JQ1", "value": 256.005}, {"measurement": "Cyp1b1 value_2", "setting": "mRNA-Seq, sample Day_6_JQ1", "value": 100.635}, {"measurement": "D2Ertd750e value_2", "setting": "mRNA-Seq, sample Day_6_JQ1", "value": 10.3027}, {"measurement": "Dact3 value_2", "setting": "mRNA-Seq, sample Day_6_JQ1", "value": 26.3749}, {"measurement": "Dag1 value_2", "setting": "mRNA-Seq, sample Day_6_JQ1", "value": 162.916}, {"measurement": "Dcbld2 value_2", "setting": "mRNA-Seq, sample Day_6_JQ1", "value": 73.5335}, {"measurement": "Dcxr value_2", "setting": "mRNA-Seq, sample Day_6_JQ1", "value": 36.0469}, {"measurement": "Ddr2 value_2", "setting": "mRNA-Seq, sample Day_6_JQ1", "value": 63.2059}, {"measurement": "Diap3 value_2", "setting": "mRNA-Seq, sample Day_6_JQ1", "value": 10.7413}, {"measurement": "Dlgap5 value_2", "setting": "mRNA-Seq, sample Day_6_JQ1", "value": 10.9428}, {"measurement": "Dzip3 value_2", "setting": "mRNA-Seq, sample Day_6_JQ1", "value": 8.399}, {"measurement": "E2f1 value_2", "setting": "mRNA-Seq, sample Day_6_JQ1", "value": 21.0746}, {"measurement": "Elovl5 value_2", "setting": "mRNA-Seq, sample Day_6_JQ1", "value": 65.5058}, {"measurement": "Eno2 value_2", "setting": "mRNA-Seq, sample Day_6_JQ1", "value": 9.68}, {"measurement": "Ephb3 value_2", "setting": "mRNA-Seq, sample Day_6_JQ1", "value": 16.6667}, {"measurement": "Ephx1 value_2", "setting": "mRNA-Seq, sample Day_6_JQ1", "value": 132.832}, {"measurement": "Evc value_2", "setting": "mRNA-Seq, sample Day_6_JQ1", "value": 10.4125}, {"measurement": "Ext2 value_2", "setting": "mRNA-Seq, sample Day_6_JQ1", "value": 87.8458}, {"measurement": "Fam171b value_2", "setting": "mRNA-Seq, sample Day_6_JQ1", "value": 12.8947}, {"measurement": "Fbxo5 value_2", "setting": "mRNA-Seq, sample Day_6_JQ1", "value": 11.9069}, {"measurement": "Fignl1 value_2", "setting": "mRNA-Seq, sample Day_6_JQ1", "value": 12.5326}, {"measurement": "Foxm1 value_2", "setting": "mRNA-Seq, sample Day_6_JQ1", "value": 15.7609}, {"measurement": "Fscn1 value_2", "setting": "mRNA-Seq, sample Day_6_JQ1", "value": 385.037}, {"measurement": "Gas1 value_2", "setting": "mRNA-Seq, sample Day_6_JQ1", "value": 80.3077}, {"measurement": "Gmnn value_2", "setting": "mRNA-Seq, sample Day_6_JQ1", "value": 19.8433}, {"measurement": "Gpm6b value_2", "setting": "mRNA-Seq, sample Day_6_JQ1", "value": 19.7607}, {"measurement": "Gpx1 value_2", "setting": "mRNA-Seq, sample Day_6_JQ1", "value": 332.885}, {"measurement": "Gstt3 value_2", "setting": "mRNA-Seq, sample Day_6_JQ1", "value": 14.4369}, {"measurement": "Gyg value_2", "setting": "mRNA-Seq, sample Day_6_JQ1", "value": 82.2854}, {"measurement": "Hadh value_2", "setting": "mRNA-Seq, sample Day_6_JQ1", "value": 56.1898}, {"measurement": "Hand2 value_2", "setting": "mRNA-Seq, sample Day_6_JQ1", "value": 110.598}, {"measurement": "Hmmr value_2", "setting": "mRNA-Seq, sample Day_6_JQ1", "value": 17.0843}, {"measurement": "Id3 value_2", "setting": "mRNA-Seq, sample Day_6_JQ1", "value": 1063.75}, {"measurement": "Ildr2 value_2", "setting": "mRNA-Seq, sample Day_6_JQ1", "value": 11.4416}, {"measurement": "Kif2c value_2", "setting": "mRNA-Seq, sample Day_6_JQ1", "value": 11.8118}, {"measurement": "Kif4 value_2", "setting": "mRNA-Seq, sample Day_6_JQ1", "value": 7.332}, {"measurement": "Kif11 value_2", "setting": "mRNA-Seq, sample Day_6_JQ1", "value": 10.8132}, {"measurement": "Kif20b value_2", "setting": "mRNA-Seq, sample Day_6_JQ1", "value": 7.299}, {"measurement": "Kif22 value_2", "setting": "mRNA-Seq, sample Day_6_JQ1", "value": 14.9542}, {"measurement": "Lamb2 value_2", "setting": "mRNA-Seq, sample Day_6_JQ1", "value": 41.1365}, {"measurement": "Lhfp value_2", "setting": "mRNA-Seq, sample Day_6_JQ1", "value": 371.966}, {"measurement": "Lphn1 value_2", "setting": "mRNA-Seq, sample Day_6_JQ1", "value": 20.1469}, {"measurement": "Melk value_2", "setting": "mRNA-Seq, sample Day_6_JQ1", "value": 7.467}, {"measurement": "Mfge8 value_2", "setting": "mRNA-Seq, sample Day_6_JQ1", "value": 379.144}, {"measurement": "Mki67 value_2", "setting": "mRNA-Seq, sample Day_6_JQ1", "value": 27.8603}, {"measurement": "Mmp11 value_2", "setting": "mRNA-Seq, sample Day_6_JQ1", "value": 36.1215}, {"measurement": "Mras value_2", "setting": "mRNA-Seq, sample Day_6_JQ1", "value": 15.4481}, {"measurement": "Mrc2 value_2", "setting": "mRNA-Seq, sample Day_6_JQ1", "value": 111.626}, {"measurement": "Msx1 value_2", "setting": "mRNA-Seq, sample Day_6_JQ1", "value": 5.962}, {"measurement": "Ndc80 value_2", "setting": "mRNA-Seq, sample Day_6_JQ1", "value": 8.604}, {"measurement": "Nkd1 value_2", "setting": "mRNA-Seq, sample Day_6_JQ1", "value": 16.9471}, {"measurement": "Nuf2 value_2", "setting": "mRNA-Seq, sample Day_6_JQ1", "value": 9.227}, {"measurement": "Oat value_2", "setting": "mRNA-Seq, sample Day_6_JQ1", "value": 213.454}, {"measurement": "Osbpl5 value_2", "setting": "mRNA-Seq, sample Day_6_JQ1", "value": 41.3593}, {"measurement": "Osr1 value_2", "setting": "mRNA-Seq, sample Day_6_JQ1", "value": 16.6329}, {"measurement": "Pbx1 value_2", "setting": "mRNA-Seq, sample Day_6_JQ1", "value": 48.4716}, {"measurement": "Pld3 value_2", "setting": "mRNA-Seq, sample Day_6_JQ1", "value": 190.597}, {"measurement": "Plxdc2 value_2", "setting": "mRNA-Seq, sample Day_6_JQ1", "value": 26.1768}, {"measurement": "Prc1 value_2", "setting": "mRNA-Seq, sample Day_6_JQ1", "value": 30.6759}, {"measurement": "Ptgr1 value_2", "setting": "mRNA-Seq, sample Day_6_JQ1", "value": 25.0296}, {"measurement": "Pxmp4 value_2", "setting": "mRNA-Seq, sample Day_6_JQ1", "value": 17.7124}, {"measurement": "Pygb value_2", "setting": "mRNA-Seq, sample Day_6_JQ1", "value": 42.1403}, {"measurement": "Racgap1 value_2", "setting": "mRNA-Seq, sample Day_6_JQ1", "value": 22.85}, {"measurement": "Rarb value_2", "setting": "mRNA-Seq, sample Day_6_JQ1", "value": 70.6683}, {"measurement": "S100a6 value_2", "setting": "mRNA-Seq, sample Day_6_JQ1", "value": 1608.42}, {"measurement": "Scrn1 value_2", "setting": "mRNA-Seq, sample Day_6_JQ1", "value": 7.911}, {"measurement": "Sipa1l1 value_2", "setting": "mRNA-Seq, sample Day_6_JQ1", "value": 28.6555}, {"measurement": "Slit2 value_2", "setting": "mRNA-Seq, sample Day_6_JQ1", "value": 14.8622}, {"measurement": "Smc2 value_2", "setting": "mRNA-Seq, sample Day_6_JQ1", "value": 19.557}, {"measurement": "Smc4 value_2", "setting": "mRNA-Seq, sample Day_6_JQ1", "value": 33.8803}, {"measurement": "Snap47 value_2", "setting": "mRNA-Seq, sample Day_6_JQ1", "value": 103.523}, {"measurement": "Spc24 value_2", "setting": "mRNA-Seq, sample Day_6_JQ1", "value": 8.494}, {"measurement": "Spry1 value_2", "setting": "mRNA-Seq, sample Day_6_JQ1", "value": 44.5222}, {"measurement": "St5 value_2", "setting": "mRNA-Seq, sample Day_6_JQ1", "value": 35.2195}, {"measurement": "Tacc3 value_2", "setting": "mRNA-Seq, sample Day_6_JQ1", "value": 18.1794}, {"measurement": "Tfdp2 value_2", "setting": "mRNA-Seq, sample Day_6_JQ1", "value": 10.5854}, {"measurement": "Tinagl1 value_2", "setting": "mRNA-Seq, sample Day_6_JQ1", "value": 326.013}, {"measurement": "Tmem53 value_2", "setting": "mRNA-Seq, sample Day_6_JQ1", "value": 17.4035}, {"measurement": "Tmsb10 value_2", "setting": "mRNA-Seq, sample Day_6_JQ1", "value": 1117.74}, {"measurement": "Trim59 value_2", "setting": "mRNA-Seq, sample Day_6_JQ1", "value": 27.2401}, {"measurement": "Tro value_2", "setting": "mRNA-Seq, sample Day_6_JQ1", "value": 7.307}, {"measurement": "Trp53inp2 value_2", "setting": "mRNA-Seq, sample Day_6_JQ1", "value": 99.8045}, {"measurement": "Twist1 value_2", "setting": "mRNA-Seq, sample Day_6_JQ1", "value": 19.9784}, {"measurement": "Uhrf1 value_2", "setting": "mRNA-Seq, sample Day_6_JQ1", "value": 16.7743}, {"measurement": "Vgll3 value_2", "setting": "mRNA-Seq, sample Day_6_JQ1", "value": 95.3643}, {"measurement": "Wdr35 value_2", "setting": "mRNA-Seq, sample Day_6_JQ1", "value": 9.874}, {"measurement": "Wt1 value_2", "setting": "mRNA-Seq, sample Day_6_JQ1", "value": 29.0084}, {"measurement": "Zbtb7c value_2", "setting": "mRNA-Seq, sample Day_6_JQ1", "value": 7.895}, {"measurement": "number of genes upregulated during HSC activation (more than 900) that are suppressed", "setting": "primary HSCs, days 3 and 6 vs day 1, JQ1 500 nM", "value": "more than 400 genes"}, {"measurement": "induction of key marker genes Col1a1, Acta2, Col1a2 and Des during HSC activation", "setting": "primary HSCs, JQ1 500 nM, mRNA-Seq and qRT-PCR", "value": "drastically abolished"}]}
